“And” between values parts separate entries of the source, which are not always exact repeats. Equal values may be shown once. Toxic doses and inconclusive results are not listed. No stated cut-off is given here; in the data, active means T/C of 150% or more; inactive means T/C below 125%.
Tested on: L1210 leukemia ip in BDF1 mice, survival T/C
Experiment: NCI In Vivo Anticancer Drug Screen. Data for tumor model L1210 Leukemia (intraperitoneal) in B6D2F1 (BDF1) mice
Conditions: endpoint: mean survival time, higher = longer survival
Summary of the method: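 Transplanted-tumor mice were given test agent; controls received vehicle only. Survival readings from the two groups were divided (treated over control).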

[1] = dose: 100.0 mg/kg/injection, schedule: Q01DX009 (ip), vehicle: Klucel (hydroxypropylcellulose) (HPC)
[2] = dose: 100.0 mg/kg/injection, schedule: Q04DX003 (ip), vehicle: Klucel (hydroxypropylcellulose) (HPC)
[3] = dose: 200.0 mg/kg/injection, schedule: Q01DX009 (ip), vehicle: Klucel (hydroxypropylcellulose) (HPC)
[4] = dose: 200.0 mg/kg/injection, schedule: Q04DX003 (ip), vehicle: Klucel (hydroxypropylcellulose) (HPC)
[5] = dose: 400.0 mg/kg/injection, schedule: Q01DX009 (ip), vehicle: Klucel (hydroxypropylcellulose) (HPC)
[6] = dose: 400.0 mg/kg/injection, schedule: Q04DX003 (ip), vehicle: Klucel (hydroxypropylcellulose) (HPC)
[7] = dose: 100.0 mg/kg/injection, schedule: Q01DX001 (ip), vehicle: Klucel (hydroxypropylcellulose) (HPC)
[8] = dose: 200.0 mg/kg/injection, schedule: Q01DX001 (ip), vehicle: Klucel (hydroxypropylcellulose) (HPC)
[9] = dose: 400.0 mg/kg/injection, schedule: Q01DX001 (ip), vehicle: Klucel (hydroxypropylcellulose) (HPC)
[10] = dose: 100.0 mg/kg/injection, schedule: Q04DX002 (ip), vehicle: Klucel (hydroxypropylcellulose) (HPC)
[11] = dose: 200.0 mg/kg/injection, schedule: Q04DX002 (ip), vehicle: Klucel (hydroxypropylcellulose) (HPC)
[12] = dose: 400.0 mg/kg/injection, schedule: Q04DX002 (ip), vehicle: Klucel (hydroxypropylcellulose) (HPC)
[13] = dose: 400.0 mg/kg/injection, schedule: Q04DX002 (ip), vehicle: saline with Tween-80
[14] = dose: 150.0 mg/kg/injection, schedule: Q01DX009 (ip), vehicle: Klucel (hydroxypropylcellulose) (HPC)

Measured: T/C

CC(C)NC(=O)N(c1ccccc1)c1ccccc1
inactive: dose: 100.0 mg/kg/injection, schedule: Q01DX009 (ip), vehicle: gum acacia 104 % of control | dose: 100.0 mg/kg/injection, schedule: Q04DX003 (ip), vehicle: gum acacia 97 % of control | dose: 200.0 mg/kg/injection, schedule: Q01DX009 (ip), vehicle: gum acacia 111 % of control | dose: 200.0 mg/kg/injection, schedule: Q04DX003 (ip), vehicle: gum acacia 100 % of control | dose: 400.0 mg/kg/injection, schedule: Q01DX009 (ip), vehicle: gum acacia 101 % of control | dose: 400.0 mg/kg/injection, schedule: Q04DX003 (ip), vehicle: gum acacia 99 % of control

CC(O)C(c1ccccc1)S(C)(=O)=O (stereo not drawn)
inactive: [1] 117 % of control | [2] 104 % of control | [3] 96 % of control | [4] 111 % of control | [5] 95 % of control | [6] 94 % of control

C/C(CC(c1ccccc1)N1CCc2ccccc2C1)=N/O (stereo not drawn)
inactive: dose: 100.0 mg/kg/injection, schedule: Q01DX009 (ip), vehicle: saline sonified 94 % of control | dose: 100.0 mg/kg/injection, schedule: Q04DX003 (ip), vehicle: saline 105 % of control | dose: 200.0 mg/kg/injection, schedule: Q01DX009 (ip), vehicle: saline sonified 94 % of control | dose: 200.0 mg/kg/injection, schedule: Q04DX003 (ip), vehicle: saline 104 % of control | dose: 400.0 mg/kg/injection, schedule: Q01DX009 (ip), vehicle: saline sonified 90 % of control | dose: 400.0 mg/kg/injection, schedule: Q04DX003 (ip), vehicle: saline 112 % of control

COc1cc2c(cc1OC)C(OC)N(C)c1c-2ccc2cc(OC)c(OC)cc12 (stereo not drawn)
inactive: dose: 100.0 mg/kg/injection, schedule: Q01DX009 (ip), vehicle: water 110 % of control | dose: 100.0 mg/kg/injection, schedule: Q04DX003 (ip), vehicle: water 103 % of control | dose: 200.0 mg/kg/injection, schedule: Q04DX003 (ip), vehicle: water 115 % of control | dose: 400.0 mg/kg/injection, schedule: Q01DX009 (ip), vehicle: water 104 % of control and 122 % of control | dose: 400.0 mg/kg/injection, schedule: Q04DX003 (ip), vehicle: water 113 % of control

O=S(=O)(Cc1ccccc1)Nc1cccc(S(=O)(=O)OCc2ccccc2)c1
inactive: [7] 102 % of control | [1] 104 % of control | [2] 100 % of control | [8] 98 % of control | [3] 95 % of control | [4] 94 % of control | [9] 106 % of control | [5] 97 % of control | [6] 92 % of control

O=C(COc1ccc(Cl)cc1C(=O)O)NCc1cccc(NC(=O)Nc2ccc(S(=O)(=O)F)cc2)c1
inactive: [7] 96 % of control | [8] 104 % of control | [9] 105 % of control

O=C(COc1cc(Cl)c(Cl)cc1Cl)Oc1ccc(Cl)cc1Cl
inactive: [10] 94 % of control | [11] 91 % of control | [12] 98 % of control

Br[SiH](Br)Br
inactive: dose: 25.6 mg/kg/injection, schedule: Q04DX002 (ip), vehicle: saline with Tween-80 93 % of control | dose: 64.0 mg/kg/injection, schedule: Q04DX002 (ip), vehicle: saline with Tween-80 93 % of control | dose: 100.0 mg/kg/injection, schedule: Q04DX003 (ip), vehicle: saline with Tween-80 101 % of control | dose: 160.0 mg/kg/injection, schedule: Q04DX002 (ip), vehicle: saline with Tween-80 90 % of control | dose: 200.0 mg/kg/injection, schedule: Q04DX003 (ip), vehicle: saline with Tween-80 92 % of control | [13] 97 % of control | dose: 400.0 mg/kg/injection, schedule: Q04DX003 (ip), vehicle: saline with Tween-80 92 % of control

Cn1ncc2c(N)[nH]nc21
inactive: dose: 75.0 mg/kg/injection, schedule: Q01DX001 (ip), vehicle: saline 107 % of control | dose: 150.0 mg/kg/injection, schedule: Q01DX001 (ip), vehicle: saline 90 % of control | dose: 300.0 mg/kg/injection, schedule: Q01DX001 (ip), vehicle: saline 98 % of control

CC(=O)n1cc(C=C2C(=O)CC(C)(C)CC2=O)c2ccccc21
inactive: dose: 37.5 mg/kg/injection, schedule: Q01DX009 (ip), vehicle: Klucel (hydroxypropylcellulose) (HPC) 89 % of control | dose: 75.0 mg/kg/injection, schedule: Q01DX009 (ip), vehicle: Klucel (hydroxypropylcellulose) (HPC) 95 % of control | [14] 98 % of control

CCOC(=O)N[n+]1ccc(C)cc1
inactive: dose: 75.0 mg/kg/injection, schedule: Q01DX001 (ip), vehicle: other 101 % of control | dose: 150.0 mg/kg/injection, schedule: Q01DX001 (ip), vehicle: other 101 % of control | dose: 300.0 mg/kg/injection, schedule: Q01DX001 (ip), vehicle: other 105 % of control

CC/C(C)=C\CC/C(C)=C\COc1ccccc1C
inactive: dose: 100.0 mg/kg/injection, schedule: Q04DX002 (ip), vehicle: saline with Tween-80 91 % of control | dose: 200.0 mg/kg/injection, schedule: Q04DX002 (ip), vehicle: saline with Tween-80 94 % of control | [13] 89 % of control

NC(=O)c1nnn(Cc2ccccc2)c1C(N)=O
inactive: [10] 104 % of control | [11] 96 % of control | [12] 101 % of control

CC(C)Nc1nc(Cl)nc(NC(C)C)n1
inactive: [14] 101 % of control | [4] 96 % of control | dose: 225.0 mg/kg/injection, schedule: Q01DX009 (ip), vehicle: Klucel (hydroxypropylcellulose) (HPC) 94 % of control | dose: 335.0 mg/kg/injection, schedule: Q01DX009 (ip), vehicle: Klucel (hydroxypropylcellulose) (HPC) 94 % of control | [6] 94 % of control

CC(=O)N(NC(=O)c1cccnc1)C(C)=O
inactive: dose: 3.75 mg/kg/injection, schedule: Q01DX015 (oral), vehicle: carboxymethylcellulose (CMC) 101 % of control | dose: 7.5 mg/kg/injection, schedule: Q01DX015 (oral), vehicle: carboxymethylcellulose (CMC) 100 % of control | dose: 15.0 mg/kg/injection, schedule: Q01DX015 (oral), vehicle: carboxymethylcellulose (CMC) 100 % of control | dose: 30.0 mg/kg/injection, schedule: Q01DX015 (oral), vehicle: carboxymethylcellulose (CMC) 106 % of control | dose: 62.0 mg/kg/injection, schedule: Q01DX Z (oral), vehicle: carboxymethylcellulose (CMC) 91 % of control | dose: 125.0 mg/kg/injection, schedule: Q01DX Z (oral), vehicle: carboxymethylcellulose (CMC) 91 % of control | dose: 250.0 mg/kg/injection, schedule: Q01DX Z (oral), vehicle: carboxymethylcellulose (CMC) 95 % of control

[Cu+].[S-]c1ccsc1
inactive: dose: 10.0 mg/kg/injection, schedule: Q01DX001 (ip), vehicle: carboxymethylcellulose (CMC) 95 % of control | dose: 20.0 mg/kg/injection, schedule: Q01DX001 (ip), vehicle: carboxymethylcellulose (CMC) 93 % of control | dose: 40.0 mg/kg/injection, schedule: Q01DX001 (ip), vehicle: carboxymethylcellulose (CMC) 90 % of control | dose: 80.0 mg/kg/injection, schedule: Q01DX001 (ip), vehicle: carboxymethylcellulose (CMC) 106 % of control

CCC[As](=O)(O)CC
inactive: dose: 100.0 mg/kg/injection, schedule: Q01DX009 (ip), vehicle: saline 103 % of control | dose: 200.0 mg/kg/injection, schedule: Q01DX009 (ip), vehicle: saline 105 % of control

Reference: PubChem BioAssay AID248 (DTP/NCI, 2004)
